What was measured:
H. pylori [1] = test: Antimicrobial activity test 2: time for sterilizing H. pylori (viable cell count in Brucella broth); type: cell-based, Helicobacter pylori
Protocol: A solution of the test compound was added to Brucella broth containing 5% fetal bovine serum, cultured under slightly aerobic conditions at 37° C., and the vial microbe cell number in Brucella agar containing 7% horse blood was counted at predetermined intervals. The above compound (1) was dissolved in a 1% aqueous solution of […] (DMSO), and the above compound (2) was dissolved in water to prepare a solution of each test compound. “cfu” in Tables and Figures means “colony forming unit”.

H. pylori [2] = test: Antimicrobial activity test 6: oxethazaine in combination with an antibiotic (AMPC, CAM, RXM), checker board method; type: cell-based, Helicobacter pylori; design: key to growth of H. pylori: “−” indicates the inhibited growth of H. pylori (presence of antimicrobial activity); “+” indicates the growth of H. pylori (absence of antimicrobial activity)
Source text: The effect of combined use with amoxicillin (AMPC), clarithromycin (CAM) or roxithromycin (RXM) was examined in the same manner as in antimicrobial activity test 1, using the checker board method.

## CN(C(=O)CN(CCO)CC(=O)N(C)C(C)(C)Cc1ccccc1)C(C)(C)Cc1ccccc1 [Oxethazaine, 2,2′-[(2-hydroxyethyl)amino]bis[N-(1,1-dimethyl-2-phenylethyl)-N-methylacetamide]]
H. pylori [1]; EH12, 1 MIC, 0 h
  Viable microbe cell number: 5.60 log10cfu/ml
H. pylori [1]; EH12, 1 MIC, 3 h
  Viable microbe cell number: 5.67 log10cfu/ml
H. pylori [1]; EH12, 1 MIC, 6 h
  Viable microbe cell number: 5.61 log10cfu/ml
H. pylori [1]; EH12, 1 MIC, 9 h
  Viable microbe cell number: 5.68 log10cfu/ml
H. pylori [1]; EH12, 1 MIC, 24 h
  Viable microbe cell number: 4.51 log10cfu/ml
H. pylori [1]; EH12, 2 MIC, 0 h
  Viable microbe cell number: 5.60 log10cfu/ml
H. pylori [1]; EH12, 2 MIC, 3 h
  Viable microbe cell number: 1.78 log10cfu/ml
H. pylori [1]; EH12, 2 MIC, 6 h
  Viable microbe cell number: 0 log10cfu/ml
H. pylori [1]; EH12, 2 MIC, 9 h
  Viable microbe cell number: 0 log10cfu/ml
H. pylori [1]; EH12, 2 MIC, 24 h
  Viable microbe cell number: 0 log10cfu/ml
H. pylori [1]; EH12, 4 MIC, 0 h
  Viable microbe cell number: 5.60 log10cfu/ml
H. pylori [1]; EH12, 4 MIC, 3 h
  Viable microbe cell number: 0 log10cfu/ml
H. pylori [1]; EH12, 4 MIC, 6 h
  Viable microbe cell number: 0 log10cfu/ml
H. pylori [1]; EH12, 4 MIC, 9 h
  Viable microbe cell number: 0 log10cfu/ml
H. pylori [1]; EH12, 4 MIC, 24 h
  Viable microbe cell number: 0 log10cfu/ml
H. pylori [1]; EH12, ½ MIC, 0 h
  Viable microbe cell number: 5.60 log10cfu/ml
H. pylori [1]; EH12, ½ MIC, 3 h
  Viable microbe cell number: 5.77 log10cfu/ml
H. pylori [1]; EH12, ½ MIC, 6 h
  Viable microbe cell number: 5.19 log10cfu/ml
H. pylori [1]; EH12, ½ MIC, 9 h
  Viable microbe cell number: 5.71 log10cfu/ml
H. pylori [1]; EH12, ½ MIC, 24 h
  Viable microbe cell number: 5.27 log10cfu/ml
H. pylori [1]; FIGS. 1 to 4, compared with the antibiotic
  sterilization curve: rapidly dropping sterilization curve
H. pylori [1]; NCTC 11637, 1 MIC, 0 h
  Viable microbe cell number: 5.70 log10cfu/ml
H. pylori [1]; NCTC 11637, 1 MIC, 3 h
  Viable microbe cell number: 5.24 log10cfu/ml
H. pylori [1]; NCTC 11637, 1 MIC, 6 h
  Viable microbe cell number: 4.98 log10cfu/ml
H. pylori [1]; NCTC 11637, 1 MIC, 9 h
  Viable microbe cell number: 4.64 log10cfu/ml
H. pylori [1]; NCTC 11637, 1 MIC, 24 h
  Viable microbe cell number: 4.30 log10cfu/ml
H. pylori [1]; NCTC 11637, 2 MIC, 0 h
  Viable microbe cell number: 5.70 log10cfu/ml
H. pylori [1]; NCTC 11637, 2 MIC, 3 h
  Viable microbe cell number: 1.90 log10cfu/ml
H. pylori [1]; NCTC 11637, 2 MIC, 6 h
  Viable microbe cell number: 0 log10cfu/ml
H. pylori [1]; NCTC 11637, 2 MIC, 9 h
  Viable microbe cell number: 0 log10cfu/ml
H. pylori [1]; NCTC 11637, 2 MIC, 24 h
  Viable microbe cell number: 0 log10cfu/ml
H. pylori [1]; NCTC 11637, 4 MIC, 0 h
  Viable microbe cell number: 5.70 log10cfu/ml
H. pylori [1]; NCTC 11637, 4 MIC, 3 h
  Viable microbe cell number: 0 log10cfu/ml
H. pylori [1]; NCTC 11637, 4 MIC, 6 h
  Viable microbe cell number: 0 log10cfu/ml
H. pylori [1]; NCTC 11637, 4 MIC, 9 h
  Viable microbe cell number: 0 log10cfu/ml
H. pylori [1]; NCTC 11637, 4 MIC, 24 h
  Viable microbe cell number: 0 log10cfu/ml
H. pylori [1]; NCTC 11637, ½ MIC, 0 h
  Viable microbe cell number: 5.70 log10cfu/ml
H. pylori [1]; NCTC 11637, ½ MIC, 3 h
  Viable microbe cell number: 5.48 log10cfu/ml
H. pylori [1]; NCTC 11637, ½ MIC, 6 h
  Viable microbe cell number: 5.27 log10cfu/ml
H. pylori [1]; NCTC 11637, ½ MIC, 9 h
  Viable microbe cell number: 5.11 log10cfu/ml
H. pylori [1]; NCTC 11637, ½ MIC, 24 h
  Viable microbe cell number: 5.51 log10cfu/ml
H. pylori [1]; NCTC 11916, 1 MIC, 0 h
  Viable microbe cell number: 5.72 log10cfu/ml
H. pylori [1]; NCTC 11916, 1 MIC, 3 h
  Viable microbe cell number: 6.04 log10cfu/ml
H. pylori [1]; NCTC 11916, 1 MIC, 6 h
  Viable microbe cell number: 5.92 log10cfu/ml
H. pylori [1]; NCTC 11916, 1 MIC, 9 h
  Viable microbe cell number: 5.84 log10cfu/ml
H. pylori [1]; NCTC 11916, 1 MIC, 24 h
  Viable microbe cell number: 4.67 log10cfu/ml
H. pylori [1]; NCTC 11916, 2 MIC, 0 h
  Viable microbe cell number: 5.77 log10cfu/ml
H. pylori [1]; NCTC 11916, 2 MIC, 3 h
  Viable microbe cell number: 3.63 log10cfu/ml
H. pylori [1]; NCTC 11916, 2 MIC, 6 h
  Viable microbe cell number: 2.83 log10cfu/ml
H. pylori [1]; NCTC 11916, 2 MIC, 9 h
  Viable microbe cell number: 2.61 log10cfu/ml
H. pylori [1]; NCTC 11916, 2 MIC, 24 h
  Viable microbe cell number: 0 log10cfu/ml
H. pylori [1]; NCTC 11916, 4 MIC, 0 h
  Viable microbe cell number: 5.77 log10cfu/ml
H. pylori [1]; NCTC 11916, 4 MIC, 3 h
  Viable microbe cell number: 0 log10cfu/ml
H. pylori [1]; NCTC 11916, 4 MIC, 6 h
  Viable microbe cell number: 0 log10cfu/ml
H. pylori [1]; NCTC 11916, 4 MIC, 9 h
  Viable microbe cell number: 0 log10cfu/ml
H. pylori [1]; NCTC 11916, 4 MIC, 24 h
  Viable microbe cell number: 0 log10cfu/ml
H. pylori [1]; NCTC 11916, ½ MIC, 0 h
  Viable microbe cell number: 5.77 log10cfu/ml
H. pylori [1]; NCTC 11916, ½ MIC, 3 h
  Viable microbe cell number: 5.70 log10cfu/ml
H. pylori [1]; NCTC 11916, ½ MIC, 6 h
  Viable microbe cell number: 6.35 log10cfu/ml
H. pylori [1]; NCTC 11916, ½ MIC, 9 h
  Viable microbe cell number: 6.32 log10cfu/ml
H. pylori [1]; NCTC 11916, ½ MIC, 24 h
  Viable microbe cell number: 6.44 log10cfu/ml
H. pylori [2]; 89-355, oxethazaine 3.13 + CAM 0 μg/ml
  growth of H. pylori: +
H. pylori [2]; 89-355, oxethazaine 6.25 + CAM 0 μg/ml
  growth of H. pylori: +
H. pylori [2]; 89-355, oxethazaine 12.5 + CAM 0 μg/ml
  growth of H. pylori: −
H. pylori [2]; 89-355, oxethazaine 25 + CAM 0 μg/ml
  growth of H. pylori: −
H. pylori [2]; 89-355, oxethazaine 50 + CAM 0 μg/ml
  growth of H. pylori: −
H. pylori [2]; 89-355, oxethazaine 100 + CAM 0 μg/ml
  growth of H. pylori: −
H. pylori [2]; 89-357, oxethazaine 3.13 + CAM 0 μg/ml
  growth of H. pylori: +
H. pylori [2]; 89-357, oxethazaine 6.25 + CAM 0 μg/ml
  growth of H. pylori: +
H. pylori [2]; 89-357, oxethazaine 12.5 + CAM 0 μg/ml
  growth of H. pylori: +
H. pylori [2]; 89-357, oxethazaine 25 + CAM 0 μg/ml
  growth of H. pylori: −
H. pylori [2]; 89-357, oxethazaine 50 + CAM 0 μg/ml
  growth of H. pylori: −
H. pylori [2]; 89-357, oxethazaine 100 + CAM 0 μg/ml
  growth of H. pylori: −
H. pylori [2]; 90-388, oxethazaine 3.13 + CAM 0 μg/ml
  growth of H. pylori: +
H. pylori [2]; 90-388, oxethazaine 6.25 + CAM 0 μg/ml
  growth of H. pylori: +
H. pylori [2]; 90-388, oxethazaine 12.5 + CAM 0 μg/ml
  growth of H. pylori: +
H. pylori [2]; 90-388, oxethazaine 25 + CAM 0 μg/ml
  growth of H. pylori: −
H. pylori [2]; 90-388, oxethazaine 50 + CAM 0 μg/ml
  growth of H. pylori: −
H. pylori [2]; 90-388, oxethazaine 100 + CAM 0 μg/ml
  growth of H. pylori: −
H. pylori [2]; 90-390, oxethazaine 3.13 + CAM 0 μg/ml
  growth of H. pylori: +
H. pylori [2]; 90-390, oxethazaine 6.25 + CAM 0 μg/ml
  growth of H. pylori: +
H. pylori [2]; 90-390, oxethazaine 12.5 + CAM 0 μg/ml
  growth of H. pylori: +
H. pylori [2]; 90-390, oxethazaine 25 + CAM 0 μg/ml
  growth of H. pylori: −
H. pylori [2]; 90-390, oxethazaine 50 + CAM 0 μg/ml
  growth of H. pylori: −
H. pylori [2]; 90-390, oxethazaine 100 + CAM 0 μg/ml
  growth of H. pylori: −
H. pylori [2]; EH 12, oxethazaine 3.13 + CAM 0 μg/ml
  growth of H. pylori: +
H. pylori [2]; EH 12, oxethazaine 6.25 + CAM 0 μg/ml
  growth of H. pylori: +
H. pylori [2]; EH 12, oxethazaine 12.5 + CAM 0 μg/ml
  growth of H. pylori: −
H. pylori [2]; EH 12, oxethazaine 25 + CAM 0 μg/ml
  growth of H. pylori: −
H. pylori [2]; EH 12, oxethazaine 50 + CAM 0 μg/ml
  growth of H. pylori: −

— patent US6426369B1, “Oxethazaine as antimicrobial agent” (Eisai Co., Ltd., priority 1997, dated 2002)
